In ChEMBL document CHEMBL1201862, “PubChem BioAssay data set” (2004):
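96-well plates; 48 h exposure; 5 concentrations. Endpoints by linear interpolation between flanking doses. Not reached: highest tested concentration assigned. GI50: concentration for 50% inhibition of growth.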 Calls of active or inactive are those of the source. No stated cut-off is given here; in the data, active = GI50 up to about 1.1 µM and inactive = higher.

Experiments:
Experiment in all cases: NCI anticancer screen, dose series, 48 h
COLO 205 = system: COLO 205
A498 = system: A498
CAKI-1 = system: CAKI-1
MCF7 = system: MCF7
HCT-15 = system: HCT-15
786-0 = system: 786-0
SF-268 = system: SF-268
SR = system: SR
DU-145 = system: DU-145
SK-MEL-5 = system: SK-MEL-5
SF-539 = system: SF-539
UACC-257 = system: UACC-257
HT-29 = system: HT-29
NCI-H226 = system: NCI-H226
M14 = system: M14
TK-10 = system: TK-10
OVCAR-3 = system: OVCAR-3
RXF 393 = system: RXF 393
SK-OV-3 = system: SK-OV-3
OVCAR-5 = system: OVCAR-5

SMILES | GI50 (COLO 205) | GI50 (A498) | GI50 (CAKI-1) | GI50 (MCF7) | GI50 (HCT-15) | GI50 (786-0) | GI50 (SF-268) | GI50 (SR) | GI50 (DU-145) | GI50 (SK-MEL-5) | GI50 (SF-539) | GI50 (UACC-257) | GI50 (HT-29) | GI50 (NCI-H226) | GI50 (M14) | GI50 (TK-10) | GI50 (OVCAR-3) | GI50 (RXF 393) | GI50 (SK-OV-3) | GI50 (OVCAR-5)
CC(=O)n1cc(OP(=O)(Oc2ccccc2)Oc2ccccc2)c2ccccc21 | 13.2 µM (inactive) | 54 µM (inactive) | 13.1 µM (inactive) | 10.1 µM (inactive) | 29 µM | 32.1 µM (inactive) | 19.7 µM (inactive) | 10.9 µM (inactive) | 72.3 µM (inactive) | 19 µM (inactive) | 15.8 µM (inactive) | 25.7 µM (inactive) | 36 µM (inactive) | 27.7 µM (inactive) | 18.9 µM (inactive) | 50.6 µM (inactive) | 24.2 µM (inactive) | – | – | –
CCc1nn(CN2CCN(C)CC2)c(=S)n1/N=C\c1ccc(-c2ccc([N+](=O)[O-])cc2)o1 | – | 26 µM (inactive) | 74.5 µM (inactive) | 40.5 µM (inactive) | 61.9 µM | 29.9 µM (inactive) | 37.8 µM (inactive) | 64.1 µM (inactive) | 50.2 µM (inactive) | 40.5 µM (inactive) | – | 57.7 µM (inactive) | > 100 µM (inactive) | 22.7 µM (inactive) | 80.4 µM (inactive) | 28.5 µM (inactive) | 30.6 µM (inactive) | 26.8 µM (inactive) | 40.7 µM (inactive) | > 100 µM (inactive)
Cc1ccnc(NC(=S)Nc2ccc([N+](=O)[O-])cc2)c1 | – | – | – | > 100 µM (inactive) | > 100 µM | 75.3 µM (inactive) | 63.5 µM (inactive) | > 100 µM (inactive) | 34.6 µM (inactive) | > 100 µM (inactive) | 26.4 µM (inactive) | > 100 µM (inactive) | > 100 µM (inactive) | > 100 µM (inactive) | > 100 µM (inactive) | > 100 µM (inactive) | – | > 100 µM (inactive) | 37.9 µM (inactive) | –
O=c1[nH]c(=O)n(C2CC(O)C(CO)O2)cc1OC/C=C/Cc1ccccc1 (stereo unspecified) | > 100 µM (inactive) | – | > 100 µM (inactive) | > 100 µM (inactive) | > 100 µM | > 100 µM (inactive) | > 100 µM (inactive) | > 100 µM (inactive) | > 100 µM (inactive) | > 100 µM (inactive) | – | > 100 µM (inactive) | > 100 µM (inactive) | > 100 µM (inactive) | > 100 µM (inactive) | > 100 µM (inactive) | > 100 µM (inactive) | > 100 µM (inactive) | > 100 µM (inactive) | > 100 µM (inactive)
COc1ccc(OC)c(N2C(=O)/C(=C\c3ccccc3)SC2c2cc(OC)c(OC)c(OC)c2)c1 (stereo unspecified) | > 91.6 µM (inactive) | 51.5 µM (inactive) | > 84.3 µM (inactive) | 3.24 µM (inactive) | 58.3 µM | > 96.6 µM (inactive) | > 100 µM (inactive) | 33.7 µM (inactive) | > 100 µM (inactive) | > 91.6 µM (inactive) | – | > 100 µM (inactive) | > 87.3 µM (inactive) | > 100 µM (inactive) | > 100 µM (inactive) | > 100 µM (inactive) | 62.4 µM (inactive) | 11.6 µM (inactive) | > 100 µM (inactive) | > 93.3 µM (inactive)
Cc1cc(C)c(S(=O)(=O)N2CCCN(S(=O)(=O)c3c(C)cc(C)cc3C)OCCCON(S(=O)(=O)c3c(C)cc(C)cc3C)CCCN(S(=O)(=O)c3c(C)cc(C)cc3C)OCCCO2)c(C)c1 | > 100 µM (inactive) | – | > 100 µM (inactive) | > 100 µM (inactive) | > 100 µM | > 100 µM (inactive) | > 100 µM (inactive) | > 100 µM (inactive) | > 100 µM (inactive) | > 100 µM (inactive) | > 100 µM (inactive) | > 100 µM (inactive) | > 100 µM (inactive) | > 100 µM (inactive) | > 100 µM (inactive) | > 100 µM (inactive) | > 100 µM (inactive) | 61.1 µM (inactive) | > 100 µM (inactive) | > 100 µM (inactive)
COc1ccc(-n2c(C)nc3ccc(NC4OC(CO)C(O)C(O)C4O)cc3c2=O)cc1 (stereo unspecified) | > 100 µM (inactive) | > 100 µM (inactive) | > 100 µM (inactive) | > 100 µM (inactive) | > 100 µM | > 100 µM (inactive) | > 100 µM (inactive) | > 100 µM (inactive) | > 100 µM (inactive) | > 100 µM (inactive) | – | > 100 µM (inactive) | > 100 µM (inactive) | > 100 µM (inactive) | – | > 100 µM (inactive) | > 100 µM (inactive) | > 100 µM (inactive) | – | > 100 µM (inactive)
COc1ccc(OC)c(CC(=O)c2ccc(O)c(C(=O)NCCc3ccc(F)cc3)c2)c1 | 16.9 µM (inactive) | 12.2 µM (inactive) | 3.26 µM (inactive) | 2.99 µM (inactive) | 2.3 µM | 4.18 µM (inactive) | 4.13 µM (inactive) | 0.502 µM (active) | 1.73 µM (inactive) | 1.73 µM (inactive) | – | 10.5 µM (inactive) | 9.86 µM (inactive) | – | 2.28 µM (inactive) | 7.23 µM (inactive) | 1.43 µM (inactive) | 1.09 µM (active) | 2.69 µM (inactive) | 7.36 µM (inactive)
